The values that follow come from patent US6783949B1, “Processes for determining whether a test substance contains lipases or lipase inhibitors” (Aventis Pharma Deutschland GmbH, priority 1999, dated 2004).

The assay deals with T1, HSL (Rattus norvegicus, UniProt P15304).
T1 construct: The partially purified HSL can be stored at −70° C. for 4 to 6 weeks; from tissue; host or cells: rat epididymal fat cells (male Wistar rats)
T1 sequence (P15304 1-768 isoform P15304-2): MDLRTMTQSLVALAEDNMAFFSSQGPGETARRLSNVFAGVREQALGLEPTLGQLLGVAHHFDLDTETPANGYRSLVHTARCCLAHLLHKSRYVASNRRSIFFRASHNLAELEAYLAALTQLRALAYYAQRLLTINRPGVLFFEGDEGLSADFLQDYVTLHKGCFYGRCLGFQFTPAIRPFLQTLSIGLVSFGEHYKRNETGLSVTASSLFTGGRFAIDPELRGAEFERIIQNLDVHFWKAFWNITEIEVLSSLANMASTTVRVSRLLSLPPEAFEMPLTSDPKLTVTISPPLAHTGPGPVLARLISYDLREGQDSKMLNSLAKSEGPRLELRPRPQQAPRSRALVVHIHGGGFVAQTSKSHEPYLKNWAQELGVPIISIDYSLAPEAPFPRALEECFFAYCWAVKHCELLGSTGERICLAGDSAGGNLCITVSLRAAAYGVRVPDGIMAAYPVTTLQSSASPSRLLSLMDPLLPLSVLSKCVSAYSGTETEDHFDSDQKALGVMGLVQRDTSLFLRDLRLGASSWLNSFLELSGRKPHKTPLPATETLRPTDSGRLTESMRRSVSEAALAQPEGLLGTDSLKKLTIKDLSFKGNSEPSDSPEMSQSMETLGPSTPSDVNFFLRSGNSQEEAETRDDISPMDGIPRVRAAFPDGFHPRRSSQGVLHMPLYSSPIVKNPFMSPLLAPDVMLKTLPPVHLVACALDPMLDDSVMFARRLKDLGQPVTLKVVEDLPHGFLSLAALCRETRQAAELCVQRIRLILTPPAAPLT
Kind of assay: Direct NAG assay (released NBD-FA, TLC/fluorimetry). It counts as biochemical. The following applies: for Absorption change, Released NBD-FA, 550 nm: 60 min, NAG 0.05 mg/ml. Here is the method: Isolated rat fat cells are obtained from epididymal fatty tissue from untreated male rats (Wistar, 220-250 g) by collagenase treatment according to published processes. The fat cells from 10 rats are washed three times by flotation with 50 ml each of homogenization buffer ([…], pH 7.4, 0.25 M sucrose, 1 mM ethylenediamine-N,N,N′,N′-tetraacetic acid (EDTA), 1 mM dithiothreitol (DTT), 10 μg/ml of leupeptin, 10 μg/ml of antipain, 20 μg/ml of pepstatin) and finally taken up in 10 ml of homogenization buffer. The fat cells are homogenized in a Teflon-in-glass homogenizer (Braun-Melsungen) by 10 strokes at 1500 rpm and 15° C. The homogenizate is centrifuged (Sorvall SM24 tubes, 5000 rpm, 10 min, 4° C.). The […] between the overlying fatty layer and the pellet is removed and the centrifugation is repeated. The […] resulting from this is centrifuged again (Sorvall SM24 tubes, 20,000 rpm, 45 min, 4° C.). […] After incubation for 60 min at 4° C. (shake at intervals of 15 min), the batch is centrifuged (Sorvall SM24 tubes, 3000 rpm, 10 min, 4° C.). The supernatant is brought to pH 5.2 by addition of glacial acetic acid and incubated at 4° C. for 30 min. The precipitates are collected by centrifugation (Sorvall SS34, 12,000 rpm, 10 min, 4° C.) and suspended in 2.5 ml of 20 mM TRIS/HCl, pH 7.0, 1 mM EDTA, 65 mM NaCl, 13% sucrose, 1 mM DTT, 10 μg/ml of leupeptin/pepstatin/antipain. The suspension is dialyzed overnight at 4° C. against 25 mM TRIS/HCl, pH 7.4, 50% glycerol, 1 mM DTT, and 10 μg/ml of leupeptin, pepstatin, and antipain and then applied to a hydroxylapatite column (0.1 g per 1 ml of suspension, equilibrated with 10 mM potassium phosphate, pH 7.0, 30% glycerol, 1 mM DTT). The column is washed with four volumes of equilibration buffer at a flow rate of 20 to 30 ml/h. The HSL is eluted with a volume of equilibration buffer which contains 0.5 M potassium phosphate, then dialyzed (see above) and concentrated 5 to 10 times by ultrafiltration (Amicon Diaflo PM 10 filter) at 4° C. The partially purified HSL can be stored at −70° C. for 4 to 6 weeks.
6 mg of phosphatidylcholine and 6 mg of phosphatidylinositol are dissolved in 1 ml of chloroform each. 10 mg of NAG are dissolved in 1 ml of chloroform. Two parts of phosphatidylinositol solution (e.g., 83.5 μl) and one part of phosphatidylcholine solution (e.g., 41.5 μl) and 100 μl of NAG solution are pipetted together into plastic scintillation containers (final concentration in the test: 0.0375 mg of phospholipid/ml; 0.05 mg/NAG/ml). The chloroform (225 μl total volume) is completely removed by overblowing with a stream of N2. The dried substrate can be stored at 4° C. for up to three days. For the preparation of the phospholipid vesicles/micelles having intercalated NAG (on the test day), the dried substrate is taken up in 20 ml of assay buffer (25 mM TRIS/HCl, pH 7.4; 150 mM NaCl) and two ultrasonic treatments with an ultrasonic probe (Branson Sonifier type 11, standard microtip): 1st treatment setting 2, 2×1 min, in between in each case 1 min on ice; 2nd treatment setting 4, 2×1 min, in between in each case 1 min on ice. During this procedure, the color of the substrate solution changed from yellow (extinction maximum 481 nm) to red (extinction maximum 550 nm) due to intercalation of NAG between the phospholipid molecules of the vesicles/micelles. Before use as a substrate (within the next 2 h), the solution is additionally incubated on ice for 15 min.
Altematively to the measurement of the extinction change of the substrate solution, the products of the HSL reaction are investigated by phase separation/thin-layer chromatography. For this, the incubation batch (200 μl total volume, see indirect NAG assay) is mixed in 2 ml Eppendorf vessels with 1.3 ml of methanol/chloroform/heptane (10:9:7) and then with 0.4 ml of 0.1 M NaOH. After intensive mixing (10 sec), the phase separation is initiated by centrifugation (800×g, 20 min, room temperature). […]

Molecules are shown by their SMILES.

By IC50 is commonly meant the point on the concentration scale where inhibition reaches its midpoint. With `O=C(CCCCCCCCCCCNc1ccc([N+](=O)[O-])c2nonc12)OCC(O)CO` (racemic) [Compound 3], the half-inhibitory concentration (IC50) was determined as 1020 ± 250 nM.

`O=C(CCCCCCCCCCCNc1ccc([N+](=O)[O-])c2nonc12)OCC(O)CO` (stereo not shown) [Compound (3)]: the “Absorption change, Released NBD-FA, 550 nm” value is recorded as 17 ± 2 arb. units (HSL 1 μg); 44 ± 5 arb. units (HSL 2 μg); 103 ± 11 arb. units (HSL 5 μg); 157 ± 21 arb. units (HSL 7.5 μg); 215 ± 24 arb. units (HSL 10 μg); 320 ± 29 arb. units (HSL 15 μg). Besides, the “Absorption change, Released NBD-FA, 550 nm” value is on record as 432 ± 53 arb. units (HSL 20 μg); 544 ± 61 arb. units (HSL 25 μg); 616 ± 56 arb. units (HSL 30 μg); 693 ± 67 arb. units (HSL 40 μg); 733 ± 80 arb. units (HSL 60 μg); 746 ± 98 arb. units (HSL 80 μg).
